From patent US11185100B2 (priority 2014, dated 2021)
Read-outs that look alike come from different tables or passages of the source.

Molecular target: T1R1/T1R3 receptor (Felis catus, UniProt E3UMS2)
Assay: Activation of T1R1/T1R3 receptor by transmembrane compounds alone or with alanine, IMP, GMP, phenylalanine; HEK293 cells, calcium fluorescence (Example 5)
Format: cell-based, cat
Settings: for Max resp % of IMP +Alanine (20 mM): relative to IMP; for Thres +Alanine (20 mM) / Thres +IMP (0.2 mM): threshold concentration; for Max resp % of Ala +IMP (0.2 mM): relative to Ala; for Activity: Table 18, all transmembrane compounds tested, active / N/A (not active)
Text: Methods: HEK293 cells that stably express T1R3 and inducibly express T1R1 were exposed to transmembrane compounds alone or in combination with one or more amino acids and/or one or more nucleotides to activate the umami receptor. Activation of the T1R1/T1R3 receptor was detected by a change in intracellular calcium levels using a calcium sensitive fluorescent dye. Cells that express T1R3 but not T1R1 were used as a control. A FLIPR® Tetra or a FlexStation® 3 was used for data capture.
In each experiment, serial dilutions of up to 10 mM of the transmembrane compound were added to the T1R1/T1R3-expressing cells.

Row | SMILES | +Alanine (20 mM) Max resp % of IMP (+Alanine (20 mM)) | +Alanine (20 mM) Max resp ΔF/F (+Alanine (20 mM)) | +Alanine (20 mM) Thres (+Alanine (20 mM)) [mM] | Max resp % of IMP +Alanine (20 mM) (+Alanine (20 mM)) [%] | Thres +Alanine (20 mM) (+Alanine (20 mM)) [mM] | +IMP (0.2 mM) Max resp % of Ala | Max resp ΔF/F +IMP (0.2 mM) | Max resp % of Ala +IMP (0.2 mM) [%] | Thres +IMP (0.2 mM) [mM] | Activity | EC50 (compound alone in buffer, read-out: EC50 +buffer (alone)) [µM] | EC50 (read-out: +Alanine (20 mM) + IMP (0.2 mM) EC50, +Alanine (20 mM) + IMP (0.2 mM)) [µM] | EC50 (read-out: EC50 +Alanine (20 mM) + IMP (0.2 mM), +Alanine (20 mM) + IMP (0.2 mM)) [µM] | EC50 (read-out: EC50 +Alanine (20 mM), +Alanine (20 mM)) [µM]
1 | CCCC(C)NC(=O)c1ccc(OC)c(C)c1 (stereo not shown) [4-methoxy-3-methyl-N-(pentan-2-yl)benzamide] | 126.0 % of IMP | 1.5650 ΔF/F | 0.050 | 126.0 | 0.050 | 128.9 % of Ala | 1.5875 ΔF/F | 128.9 | 0.025 | active |  |  |  | 
2 | O=C(CN1C(=O)C(=O)N(Cc2ccccc2)C1=O)c1ccccc1 [1-benzyl-3-(2-oxo-2-phenylethyl)imidazolidine-2,4,5-trione] | 127.6 % of IMP | 1.3 ΔF/F | 1 | 127.6 | 1 | 135.7 % of Ala | 1.140 ΔF/F | 135.7 | 0.08 | active | > 1000 | 330 ± 40 | 330 | > 1000
3 | CCC(CC)NC(=O)c1ccc(C)c(C)c1 [3,4-dimethyl-N-(pentan-3-yl)benzamide] |  |  |  | 97.8 | 3 |  | 1.5475 ΔF/F | 125.7 | 0.525 | active |  |  |  | 
4 | O=C(NCCc1ccccc1)C(=O)NCc1cccnc1 [N1-phenethyl-N2-(pyridin-3-ylmethyl)oxalamide; N-(2-phenylethyl)-N′-(pyridin-3-ylmethyl)ethanediamide] | 30.2 % of IMP | 0.3750 ΔF/F | 1 |  |  | 61.9 % of Ala |  |  |  |  |  |  |  | 
5 | CCC(CC)NC(=O)/C=C/c1ccc(OC)cc1 [(E)-3-(4-methoxyphenyl)-N-(pentan-3-yl)acrylamide] | 64.1 % of IMP | 0.7 ΔF/F | 0.148 | 64.1 | 0.148 | 171.7 % of Ala | 1.443 ΔF/F | 171.7 | 0.0375 | active |  |  |  | 
6 | CSc1ccc(-c2nnn(Cc3ccccn3)n2)cc1 [2-((5-(4-(methylthio)phenyl)-2H-tetrazol-2-yl)methyl)pyridine] |  |  |  |  |  | 80.7 % of Ala | 0.678 ΔF/F | 80.7 | 0.1575 | active |  |  |  | 
7 | CCOC(=O)C(NC(=O)c1ccc2c(c1)OCO2)C(C)C (stereo not shown) [ethyl 2-(benzo[d][1,3]dioxole-5-carboxamido)-3-methylbutanoate] | 25.6 % of IMP | 0.3175 ΔF/F | 10 | 25.6 | 10 | 52.8 % of Ala | 0.65 ΔF/F | 52.8 | 1 | active |  |  |  | 
8 | O=C(Nc1ccccc1Br)N[C@@H]1c2ccccc2C[C@@H]1O (stereo in doubt) [1-(2-bromophenyl)-3-((1R,2S)-2-hydroxy-2,3-dihydro-1H-inden-1-yl)urea] | 33.0 % of IMP | 0.3 ΔF/F | 3 | 33.0 | 3 | 44.9 % of Ala | 0.378 ΔF/F | 44.9 | 3 | active |  |  |  | 
9 | CCCC(C)NC(=O)/C=C/c1ccc(OC)c(OC)c1 (stereo not shown) [(E)-3-(3,4-dimethoxyphenyl)-N-(pentan-2-yl)acrylamide; (2E)-3-(3,4-dimethoxyphenyl)-N-(pentan-2-yl)prop-2-enamide] | 35.2 % of IMP | 0.4375 ΔF/F | 1 |  |  | 86.9 % of Ala |  |  |  |  |  |  |  | 
